For experiment [1], the target named is T1, CETP (Homo sapiens, UniProt P11597).
T1 sequence (P11597 18-493): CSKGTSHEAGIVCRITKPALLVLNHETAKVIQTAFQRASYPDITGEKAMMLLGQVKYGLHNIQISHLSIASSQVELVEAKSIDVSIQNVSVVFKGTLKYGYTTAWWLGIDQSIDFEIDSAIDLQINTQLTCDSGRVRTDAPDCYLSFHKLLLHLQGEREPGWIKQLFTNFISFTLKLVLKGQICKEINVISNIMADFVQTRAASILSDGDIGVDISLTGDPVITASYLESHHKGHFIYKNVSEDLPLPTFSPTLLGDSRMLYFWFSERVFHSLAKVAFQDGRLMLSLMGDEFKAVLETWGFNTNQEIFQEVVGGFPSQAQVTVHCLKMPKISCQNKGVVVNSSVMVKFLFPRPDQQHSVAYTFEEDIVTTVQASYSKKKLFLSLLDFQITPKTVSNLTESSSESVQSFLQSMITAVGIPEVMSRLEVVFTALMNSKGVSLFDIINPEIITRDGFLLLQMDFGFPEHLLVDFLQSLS
Kind of experiment: Assay of CETP Inhibition using Purified Components (Reconstituted Buffer Assay). The format is biochemical. Further details: made in house; host or cells: CHO cells (serum-free conditioned medium). The settings on record: Inhibition of CETP activity in reconstituted buffer assay; transfer of [3H]CE from HDL to LDL; read-out: IC50. The method, boiled down: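 Transfer of radiolabeled cholesteryl ester from HDL to LDL was run for 2 h at 37 °C in pH 7.4 Tris buffer with 1% BSA, using purified CHO-expressed human CETP. Precipitated LDL radioactivity, measured by scintillation after dextran sulfate/MgCl2 precipitation and filtration, yielded the IC50.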

Experiment [2] concerns the target T1, CETP. Kind of experiment: Assay of CETP Inhibition in Human Plasma. The format is biochemical. Further details: Blood was obtained from healthy volunteers, recruited from the personnel of Monsanto Company; from tissue; host or cells: human EDTA plasma pool from healthy volunteers. The following applies: transfer of [3H]CE from HDL to VLDL and LDL. In short, it runs like this:
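In human EDTA plasma with [3H]CE-HDL, compounds in 1% DMSO (4 μL in 396 μL) were incubated 4 h at 37° C. IC50 was taken from % control versus concentration.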

Where [3] appears, read: Inhibition of CETP activity in human plasma assay, read-out: IC50.

For the compound `OC(CN(Cc1cccc(OC(F)(F)C(F)F)c1)c1cccc(OCc2cc(F)cc(F)c2)c1)C(F)(F)F` (stereo not drawn) [Example 378], the IC50 in experiment [1] was determined as 200 nM; in experiment [2] (setting [3]) it was 12000 nM.
In the case of `OC(CN(Cc1cccc(OC(F)(F)C(F)F)c1)c1cccc(OCc2cccc(C(F)(F)F)c2)c1)C(F)(F)F` (stereo not drawn) [Example 379], the IC50 in experiment [1] was determined as 98 nM; in experiment [2] (IC50, Inhibition of CETP activity in human plasma assay) it was 7700 nM.
Turning to `Cc1ccc(COc2cccc(N(Cc3cccc(OC(F)(F)C(F)F)c3)CC(O)C(F)(F)F)c2)cc1` (stereo not drawn) [Example 385], the IC50 stood at 420 nM in experiment [1] and 29000 nM in experiment [2] (setting [3]).
Regarding `OC(CN(Cc1cccc(OC(F)(F)C(F)F)c1)c1cccc(OCc2ccc(OC(F)F)cc2)c1)C(F)(F)F` (stereo not drawn) [Example 389], the IC50 in experiment [1] was 700 nM; in experiment [2] (setting [3]) it was > 50000 nM.
`OC(CN(Cc1cccc(OC(F)(F)C(F)F)c1)c1cccc(OCc2ccccc2F)c1)C(F)(F)F` (stereo not drawn) [Example 390]: the IC50 in experiment [1] worked out at 340 nM; in experiment [2] (setting [3]), 24000 nM.
On the same counts, the results for `OC(CN(Cc1cccc(OC(F)(F)C(F)F)c1)c1cccc(OCc2ccc(F)cc2)c1)C(F)(F)F` (stereo not drawn) [Example 391] are 560 nM and 25000 nM.
On the same counts, the results for `OC(CN(Cc1cccc(OC(F)(F)C(F)F)c1)c1cccc(OCc2cccc(Cl)c2F)c1)C(F)(F)F` (stereo not drawn) [Example 393] are 820 nM and 5000 nM.
In the case of `OC(CN(Cc1cccc(OC(F)(F)C(F)F)c1)c1cccc(OCc2ccc(F)cc2F)c1)C(F)(F)F` (stereo not drawn) [Example 395], the IC50 in experiment [1] was 1100 nM; in experiment [2] (setting [3]) it was 10000 nM.
As for `OC(CN(Cc1cccc(OC(F)(F)C(F)F)c1)c1cccc(OCc2ccc(C(F)(F)F)cc2C(F)(F)F)c1)C(F)(F)F` (stereo not drawn) [Example 396], the figures for the IC50 in experiment [1] and in experiment [2] (setting [3]) were 860 nM and 10000 nM, respectively.
Turning to `OC(CN(Cc1cccc(OC(F)(F)C(F)F)c1)c1cccc(OCc2cc(F)ccc2F)c1)C(F)(F)F` (stereo not drawn) [Example 397], the IC50 in experiment [1] is 810 nM; in experiment [2] (setting [3]), 10000 nM.
Take `OC(CN(Cc1cccc(OC(F)(F)C(F)F)c1)c1cccc(OCc2cccc(F)c2F)c1)C(F)(F)F` (stereo not drawn) [Example 399]: the IC50 came out at 350 nM in experiment [1] and 3400 nM in experiment [2] (setting [3]).
On the same counts, the results for `OC(CN(Cc1cccc(OC(F)(F)C(F)F)c1)c1cccc(OCc2cccc(C(F)(F)F)c2F)c1)C(F)(F)F` (stereo not drawn) [Example 400] are 210 nM and 6300 nM.
`OC(CN(Cc1cccc(OC(F)(F)C(F)F)c1)c1cccc(OCc2cccc(Br)c2)c1)C(F)(F)F` (stereo not drawn) [Example 401]: the concentration for half-maximal inhibition (IC50) in experiment [1] worked out at 180 nM; in experiment [2] (setting [3]), 4200 nM.
On the same counts, the results for `Cc1cccc(COc2cccc(N(Cc3cccc(OC(F)(F)C(F)F)c3)CC(O)C(F)(F)F)c2)c1` (stereo not drawn) [Example 402] are 330 nM and 2900 nM.
Turning to `OC(CN(Cc1cccc(OC(F)(F)C(F)F)c1)c1cccc(OCc2cccc(I)c2)c1)C(F)(F)F` (stereo not drawn) [Example 405], the IC50 in experiment [1] was 600 nM; in experiment [2] (setting [3]) it was 6200 nM.
On the same counts, the results for `CC(Oc1cccc(N(Cc2cccc(OC(F)(F)C(F)F)c2)CC(O)C(F)(F)F)c1)c1ccccc1` (stereo not drawn) [Example 429] are 440 nM and 4400 nM.
Consider `O=[N+]([O-])c1ccccc1Oc1cccc(N(Cc2cccc(OC(F)(F)C(F)F)c2)CC(O)C(F)(F)F)c1` (stereo not drawn) [Example 436, 3-[[3-(2-nitrophenoxy)phenyl][[3-(1,1,2,2-tetrafluoroethoxy)phenyl]-methyl]amino]-1,1,1-trifluoro-2-propanol], for which the values for the IC50 in experiment [1] and in experiment [2] (setting [3]) were 420 nM and 14000 nM, respectively.
With `O=[N+]([O-])c1cc(Br)ccc1Oc1cccc(N(Cc2cccc(OC(F)(F)C(F)F)c2)CC(O)C(F)(F)F)c1` (stereo not drawn) [Example 439], the IC50 in experiment [1] was 1000 nM; in experiment [2] (setting [3]), 13000 nM.
On the same counts, the results for `O=[N+]([O-])c1c(F)cccc1Oc1cccc(N(Cc2cccc(OC(F)(F)C(F)F)c2)CC(O)C(F)(F)F)c1` (stereo not drawn) [Example 440] are 770 nM and 24000 nM.
Take `Cc1ccc([N+](=O)[O-])cc1Oc1cccc(N(Cc2cccc(OC(F)(F)C(F)F)c2)CC(O)C(F)(F)F)c1` (stereo not drawn) [Example 447]: the results for the half-maximal inhibitory concentration (IC50) in experiment [1] and in experiment [2] (setting [3]) were 9800 nM and > 50000 nM, respectively.
For `CC(C)Sc1cccc(N(Cc2cccc(OC(F)(F)C(F)F)c2)CC(O)C(F)(F)F)c1` (stereo not drawn) [Example 473, 3-[[3-[(1-methylethyl)thio]phenyl][[3-(1,1,2,2-tetrafluoroethoxy)phenyl]-methyl]amino]-1,1,1-trifluoro-2-propanol], the IC50 is 370 nM in experiment [1] and 16000 nM in experiment [2] (setting [3]).
With `O=[N+]([O-])c1ccc(Sc2cccc(N(Cc3cccc(OC(F)(F)C(F)F)c3)CC(O)C(F)(F)F)c2)cc1` (stereo not drawn) [Example 475], the results for the IC50 in experiment [1] and in experiment [2] (setting [3]) were 640 nM and 37000 nM, respectively.
As to `CC(C)Oc1cccc(N(Cc2cccc(OC(F)(F)C(F)F)c2)CC(O)C(F)(F)F)c1` (stereo not drawn) [Example 489], the half-inhibitory concentration (IC50) in experiment [1] came to 330 nM; in experiment [2] (setting [3]), 8800 nM.
On the same counts, the results for `COC(=O)C=CCOc1cccc(N(Cc2cccc(OC(F)(F)C(F)F)c2)CC(O)C(F)(F)F)c1` (stereo not drawn) [Example 499] are 830 nM and 34000 nM.
Consider `OC(CN(Cc1cccc(OC(F)(F)C(F)F)c1)c1cccc(-c2cccc(C(F)(F)F)c2)c1)C(F)(F)F` (stereo not drawn) [Example 550, 1,1,1-trifluoro-3-[[[3-(1,1,2,2-tetrafluoroethoxy)phenyl]methyl][[3′-(trifluoromethyl)1,1′-biphenyl]-3-yl]amino]-2-propanol], for which the results for the IC50 in experiment [1] and in experiment [2] (setting [3]) were 500 nM and 30000 nM, respectively.
Regarding `OC(CN(Cc1cccc(OC(F)(F)C(F)F)c1)c1cccc(-c2ccc(F)c(Cl)c2)c1)C(F)(F)F` (stereo not drawn) [Example 554], the IC50 in experiment [1] is 750 nM; in experiment [2] (setting [3]), 18000 nM.
As to `O=[N+]([O-])c1cccc(-c2cccc(N(Cc3cccc(OC(F)(F)C(F)F)c3)CC(O)C(F)(F)F)c2)c1` (stereo not drawn) [Example 556], the IC50 in experiment [1] was 920 nM; in experiment [2] (setting [3]), 49000 nM.
Take `OC(CN(Cc1cccc(OC(F)(F)C(F)F)c1)c1cccc(-c2cc(Cl)cc(Cl)c2)c1)C(F)(F)F` (stereo not drawn) [Example 557]: the figures for the IC50 in experiment [1] and in experiment [2] (setting [3]) were 880 nM and 34000 nM, respectively.
Consider `COc1ccc(-c2cccc(N(Cc3cccc(OC(F)(F)C(F)F)c3)CC(O)C(F)(F)F)c2)cc1` (stereo not drawn) [Example 558], for which the IC50 in experiment [1] was 690 nM; in experiment [2] (setting [3]), 38000 nM.
In the case of `OC(CN(Cc1cccc(OC(F)(F)C(F)F)c1)c1cccc(-c2ccc(F)c(F)c2)c1)C(F)(F)F` (stereo not drawn) [Example 559], the IC50 was found to be 560 nM in experiment [1] and 8000 nM in experiment [2] (setting [3]).
`OC(CN(Cc1cccc(OC(F)(F)C(F)F)c1)c1cccc(-c2ccc(F)c(F)c2F)c1)C(F)(F)F` (stereo not drawn) [Example 560]: the IC50 is 1000 nM in experiment [1] and 11000 nM in experiment [2] (setting [3]).
Take `OC(CN(Cc1cccc(-c2cccs2)c1)c1cccc(Oc2ccccc2)c1)C(F)(F)F` (stereo not drawn) [Example 595, 3-[(3-phenoxyphenyl) [[3-(2-thienyl)phenyl]methyl]amino]-1,1,1-trifluoro-2-propanol]: the figures for the half-inhibitory concentration (IC50) in experiment [1] and in experiment [2] (setting [3]) were 1100 nM and 42000 nM, respectively.
On to `OC(CN(Cc1cccc(Br)c1)c1cccc(Oc2ccccc2)c1)C(F)(F)F` (stereo not drawn) [Example 595B, 3-[(3-phenoxyphenyl)[[3-bromophenyl]methyl]amino]-1,1,1-trifluoro-2-propanol], for which the IC50 in experiment [1] was 4500 nM; in experiment [2] (setting [3]), > 100000 nM.
On the same counts, the results for `OC(CN(Cc1cccc(OC(F)(F)C(F)F)c1)c1cccc(Oc2cc(F)ccc2Br)c1)C(F)(F)F` (stereo not drawn) [Example 629, 3-[[3-(2-bromo-5-fluorophenoxy)phenyl][[3-(1,1,2,2-tetrafluoro-ethoxy)phenyl]methyl]amino]-1,1,1-trifluoro-2-propanol] are 54 nM and 3400 nM.
For `OC(CN(Cc1cccc(OC(F)(F)C(F)F)c1)c1cccc(Oc2cc(Br)ccc2F)c1)C(F)(F)F` (stereo not drawn) [Example 630, 3-[[3-(-5-bromo-2-fluorophenoxy)phenyl][[3-(1,1,2,2-tetrafluoro-ethoxy)phenyl]methyl]amino]-1,1,1-trifluoro-2-propanol], the IC50 in experiment [1] was 50 nM; in experiment [2] (setting [3]), 1800 nM.
On the same counts, the results for `CC(C)(C)Oc1cccc(CN(CC(O)C(F)(F)F)c2cccc(Oc3ccccc3)c2)c1` (stereo not drawn) [Example 654, 3-[(3-phenoxyphenyl)[[3-(1,1-dimethylethoxy)phenyl]methyl]amino]-1,1,1-trifluoro-2-propanol] are 670 nM and 12000 nM.

The record behind these values is patent US6723753B2, “Substituted n-benzyl-n-phenyl aminoalcohol compounds useful for inhibiting cholesteryl ester transfer protein activity” (Pharmacia Corporation, priority 2002, dated 2004).
